Test: in vitro
Conditions: human, hela cells, % viability

Compound | viability at 28.5 h, 10 µM [%]
Cc1cc2ccccc2n1CCC(=O)NC1CCCOC1 (centres unmarked) [CBK283152] | 91.1
CC1CCc2n[nH]c(C(=O)NCCCc3ccco3)c2C1 (centres unmarked) [CBK283153] | 88.6
O=C(NCCCC1CCOC1)c1[nH]nc2c1CCCCC2 (centres unmarked) [CBK283154] | 88.7
O=C(NCCCc1ccccn1)C1(c2ccccc2F)CC1 [CBK283155] | 93.6
Cc1n[nH]c(C)c1CNC(=O)C1(c2ccccc2F)CC1 [CBK283156] | 96.4
O=C(NCCN1CCc2ccccc21)C1CC2C=CC1O2 (centres unmarked) [CBK283158] | 96.2
Cc1cc(C)n(CC(O)CN(Cc2ccco2)CC2CC=CCC2)n1 (centres unmarked) [CBK283159] | 95.6
CCCc1cc(C(=O)N(C)CCOc2ccccc2)[nH]n1 [CBK283162] | 91.7
O=C(NCCN1CCC(O)(c2ccc(F)cc2)CC1)c1cccs1 [CBK283163] | 91.5
O=C(NCCN1CCC(O)(c2ccc(F)cc2)CC1)C1CC1 [CBK283164] | 97.1
O=C(NCCN1CCC(O)(c2ccc(F)cc2)CC1)c1ccco1 [CBK283166] | 99.3
CC1CC1C(=O)NCCN1CCC(O)(c2ccc(F)cc2)CC1 (centres unmarked) [CBK283168] | 96.7
CCN1CCCC1CN(Cc1ccncc1)Cc1ccoc1 (centres unmarked) [CBK283171] | 91
Cc1[nH]c2ccc(F)cc2c1-c1cn2c3c(nnc2n1)CCCC3 [CBK283172] | 92.3
Cc1ccc(CN(CCCN(C)C)Cc2cccc(O)c2)o1 [CBK283173] | 108
Cc1ccc(CN(Cc2c[nH]cn2)C2CC(C)(C)NC(C)(C)C2)o1 [CBK283175] | 91
Cn1ccnc1CN(Cc1ccccc1)C1CC(C)(C)NC(C)(C)C1 [CBK283177] | 93.2
Cc1nc[nH]c1CN(Cc1ccccc1)C1CC(C)(C)NC(C)(C)C1 [CBK283178] | 92
CC1(C)CC(N(Cc2ccccc2)Cc2ncc[nH]2)CC(C)(C)N1 [CBK283179] | 95.2
Cc1n[nH]c(C)c1CNC(=O)CCc1ccc(Cl)cc1 [CBK283185] | 95
Cc1ccc(CN(CCCn2ccnc2)Cc2ccccc2O)o1 [CBK283189] | 99.8
Cc1ccc(CN(Cc2nccn2C)C2CC(C)(C)NC(C)(C)C2)o1 [CBK283190] | 112
Cc1ccc(CN(Cc2ncc[nH]2)C2CC(C)(C)NC(C)(C)C2)o1 [CBK283191] | 96
CC1(C)CC(N(Cc2ccccc2)Cc2c[nH]cn2)CC(C)(C)N1 [CBK283196] | 103

Compound | viability at 28.5 h, 10 µM [%]
CN(C)CCCN(Cc1ccco1)Cc1c[nH]nc1-c1cccs1 [CBK283198] | 106
Cc1nc2sccn2c1CN(CCCN(C)C)Cc1ccco1 [CBK283199] | 92.5
OC1CCN(Cc2ccc(-c3ccc(F)cc3F)o2)CC1 [CBK283200] | 98.9
CCn1cc(CN(CCCN(C)C)Cc2ccc(C)o2)c(C)n1 [CBK283201] | 95.5
Cn1ccnc1CN1C[C@@H]2CCCN2C[C@@H]1Cc1ccccc1 [CBK283202] | 91.1
CN(CCc1ccccc1)Cc1nc2ccccc2c(=O)[nH]1 [CBK283204] | 98.7
O=c1[nH]c(CN2CCCCCCC2)nc2ccccc12 [CBK283205] | 117
CC1CCc2n[nH]c(C(=O)N3CCC(O)C(C)C3)c2C1 (centres unmarked) [CBK283207] | 107
O=C(NCCCc1ccccn1)c1cc2ccc(F)cc2[nH]1 [CBK283211] | 84.4
CC1CCc2n[nH]c(C(=O)NCCCC3CCOC3)c2C1 (centres unmarked) [CBK283212] | 102
O=C(NCCCC1CCOC1)c1cc2ccc(F)cc2[nH]1 (centres unmarked) [CBK283213] | 110
CCOC(=O)C(C)NC(=O)c1cc2ccc(F)cc2[nH]1 (centres unmarked) [CBK283214] | 107
C1=CCC(CN(CCCn2ccnc2)Cc2cccnc2)CC1 (centres unmarked) [CBK283216] | 88.6
C=Cn1ncc(CN(CCCn2ccnc2)CC2CC=CCC2)c1C (centres unmarked) [CBK283219] | 96.8
CC(C)C1c2cccn2CCN1C(=O)c1cc(-c2ccccn2)n[nH]1 (centres unmarked) [CBK283223] | 81.9
CCC1c2ccc(C)n2CCN1C(=O)c1cc(-c2ccccn2)n[nH]1 (centres unmarked) [CBK283225] | 86.4
C[C@@H](Cn1c(C(F)(F)F)cc2cccnc21)NC(=O)C1CCC1 [CBK283230] | 109
Cc1ccc(CN(CCCN2CCOCC2)Cc2ccoc2)o1 [CBK283234] | 81
Cc1ccc(CN(CCN(C)C)Cc2c(C)nn(C(C)C)c2C)o1 [CBK283235] | 100
CC(NC(=O)CSCc1ccco1)c1ccccc1 (centres unmarked) [CBK283237] | 100
CC(Cc1cccs1)NC(=O)CSCc1ccco1 (centres unmarked) [CBK283238] | 84.8
Cc1ccc2c(CC(=O)N(C)CCc3cn[nH]c3)coc2c1 [CBK283239] | 90.8
Cc1ccc2c(CC(=O)NCCn3cncn3)coc2c1 [CBK283240] | 93.8
COc1ccc(C2(CN3CCC(NC(C)=O)CC3)CCCC2)cc1 [CBK283241] | 85.4

Compound | viability at 28.5 h, 10 µM [%]
COc1cccc(C2(O)CCCC3CN(C(C)=O)CC32)c1 (centres unmarked) [CBK283242] | 80.8
Cc1cc(C)n(C(C)CNC(=O)c2cc(C3CC3)on2)n1 (centres unmarked) [CBK283243] | 103
CC(Cc1cccs1)NC(=O)c1cc(C2CC2)on1 (centres unmarked) [CBK283244] | 107
C[S+]([O-])CCNC(=O)c1cnn(-c2ccc(F)cc2)c1 (centres unmarked) [CBK283245] | 89.1
Cc1c(C(=O)NCCCCn2ccnc2)[nH]c2ccccc12 [CBK283246] | 94.3
CCc1[nH]c2ccc(C(=O)NC3CCCOC3)cc2c1C (centres unmarked) [CBK283247] | 95.9
Cc1ccc(CN(CCCn2ccnc2)Cc2ccsc2)o1 [CBK283253] | 96.4
CCCN1CCC(CNC(=O)c2cc3c(OC)cccc3n2C)CC1 [CBK283255] | 90.1
CCn1cc(CCC(=O)NC2CCCOC2)c2ccccc21 (centres unmarked) [CBK283256] | 88.7
CCn1c(C)cc2cc(NC(=O)c3cnc(C)nc3C)ccc21 [CBK283260] | 104
COc1ccccc1CC(C)NC(=O)c1ccc2nc(C)[nH]c2c1 (centres unmarked) [CBK283261] | 86.1
Cc1c(CN(Cc2ccccc2)CC2CCCO2)cnn1C (centres unmarked) [CBK283263] | 94.3
Cc1nn(C)cc1CN(Cc1ccccc1)CC1CCCO1 (centres unmarked) [CBK283264] | 94.4
CCn1cc(CN(Cc2ccccc2)CC2CCCO2)c(C)n1 (centres unmarked) [CBK283265] | 93.7
CCc1nc2ccc(NC(=O)CCCc3ccncc3)cc2[nH]1 [CBK283268] | 111
Cc1c(C(=O)N(C)CCc2ccncc2)[nH]c2ccccc12 [CBK283271] | 104
Cc1ncc(C(=O)NC2(c3cccc(F)c3)CCCC2)c(C)n1 [CBK283273] | 89.4
O=C(NCCN1CCC(O)(c2cccc(F)c2)CC1)C1CCCCC1 [CBK283281] | 96.2
COc1cccc2c1cc(C(=O)NCc1cc(C3CC3)[nH]n1)n2C [CBK283282] | 80.4
COc1cccc2c1cc(C(=O)NCCCC1CCOC1)n2C (centres unmarked) [CBK283284] | 93.4
O=C(NCCN1CCC(O)(c2cccc(F)c2)CC1)C1CCCC1 [CBK283285] | 110
C=CCNC(=O)CCn1c(C(C)C)cc2cccnc21 [CBK283289] | 105
C=Cn1ncc(CN(Cc2ccc(C)o2)CC2CCCO2)c1C (centres unmarked) [CBK283292] | 101
O=C(NCCCc1ccccn1)c1cc(C2CCCCC2)no1 [CBK283296] | 89.4

Compound | viability at 28.5 h, 10 µM [%]
Cc1nc2ccc(C(=O)NCCCN3CC(C)CC(C)C3)cc2[nH]1 (centres unmarked) [CBK283298] | 85.4
C=Cn1ncc(CN2CCC3(O)CCCCC3C2)c1C (centres unmarked) [CBK283302] | 94.5
CC(c1ccco1)N(C)Cc1c[nH]nc1-c1ccc(O)cc1 (centres unmarked) [CBK283303] | 89
C[S+]([O-])CCNC(=O)c1cc2c(Cl)cccc2[nH]1 (centres unmarked) [CBK283304] | 83.9
Cc1cc(C(=O)NCC[S+](C)[O-])c(-n2cccc2)s1 (centres unmarked) [CBK283305] | 96.7
CCn1cncc1CN1CCN(CC2(c3ccc(C)cc3)CC2)CC1 [CBK283307] | 105
CC(Cc1ccccn1)N(C)C(=O)c1cnn(-c2ccc(F)cc2)c1 (centres unmarked) [CBK283316] | 99.6
OC1CCN(Cc2c(-c3cccs3)[nH]c3ncccc23)CC1 [CBK283318] | 79.9
O[C@@H]1CN(Cc2ccc(F)c(F)c2)CC[C@H]1NC1CC1 [CBK283319] | 94
Cc1ccc(C2(O)CCN(CCNC(=O)C3CCCCC3)CC2)cc1 [CBK283323] | 97.4
CN(Cc1cccn1C)C(=O)c1cc(-c2cnn(C)c2)[nH]n1 [CBK283325] | 103
C=CCn1c2cc(C)oc2c2cnn(CC(=O)N(C)C)c(=O)c21 [CBK283326] | 101
OCc1c(-c2ccc(F)cc2)[nH]c2ncccc12 [CBK283328] | 86.5
Cc1csc2c(C3CCCN(C(=O)c4cccnc4)C3)nc(C)n12 (centres unmarked) [CBK283329] | 93.4
Cn1c(=O)n(CC(=O)NC2(C)C3CCC(C3)C2(C)C)c2cccnc21 (centres unmarked) [CBK283330] | 84.9
O=C1Nc2c(cnn2-c2ccccc2Cl)C2=NCCCN12 [CBK283331] | 100
O=C1NC2(CCc3ccccc31)CCN(C(=O)c1cccnc1)C2 (centres unmarked) [CBK283335] | 96.5
COc1ccc(CN2CCC3(CCc4ccccc4C(=O)N3)C2)cc1 (centres unmarked) [CBK283339] | 97.6
O=C(C1CCCC1)N1CC(n2nc(-c3cccs3)ccc2=O)C1 [CBK283345] | 86.8
O=C(c1cccs1)N1CC(n2nc(-c3cccs3)ccc2=O)C1 [CBK283347] | 97.3
O=C1CCC[C@]2(CN(Cc3ccccc3)C[C@H]2c2ccncc2)N1 [CBK283348] | 84.5
Cc1cccc([C@@H]2CN(Cc3ccccc3)C[C@]23CCCC(=O)N3)n1 [CBK283350] | 107
O=C(C1C2CCCCC21)N1CCC(c2nnc3n2CCCCC3)CC1 (centres unmarked) [CBK283351] | 95.2

From paper PMC12040169 (PLOS Biology, 2025)
